From patent US12297453B2, “Generation of norepinephrine neurons from human stem cells” (Wisconsin Alumni Research Foundation, priority 2020, dated 2025)

Key:
hESC-derived NE neurons = assay: NE content in supernatant of NE neuron culture by ELISA; assay type: cell-based, human
Method: gRNA was designed according to Benchling. Donor plasmid was generated by NEBuilder® HiFi DNA Assembly Master Mix (NEB, E2621S). Briefly, hPSCs were digested by TrypLE Express. Gene Pulser Xcell (Bio-Rad) was used for CRISPR/Cas9 delivery. Two-million cells were electroporated with 15 μg of sgRNA plasmid (pLenti-CRISPR) with 30 μg donor plasmid. Cells were plated at ˜150,000 cells/well of 6-well plate. Starting 24 hours after electroporation, 0.5 μg/ml puromycin were added to the culture medium. After 3 days of puromycin selection, hPSCs were switched to their normal culture medium and fed every other day until approximately 1-2 weeks after electroporation when distinct colonies were established. • Cell transplantation: Small aggregates of NE neural progenitors (day 10-day 12) were collected and suspended in artificial cerebral spinal fluid (aCSF) containing Rock inhibitor (0.5 μM), at a concentration of 100,000 cells/μl. 1 μl of cells were slowly injected into the left cortex (AP=+0.0 mm, ML=+1.8 mm, DV=−1.7 mm, from skull) of adult SCID mice (8-12 weeks) that were anesthetized with 1%-2% isoflurane mixed in oxygen. • Immunocytochemistry and flow cytometry: Immunocytochemistry was performed as described previously. See Huang et al., 2016, Sci Rep, 6:32600, doi:10.1038/srep32600. In brief, cells on coverslips were fixed in 4% neutral-buffered paraformaldehyde (PFA) for 10 minutes (min) at room temperature. Following rinsing with PBS, these cells were incubated in 0.2% Triton X-100 (in phosphate buffered saline (PBS)) for 10 min followed by 10% donkey serum (in PBS) at room temperature for 1 hour (h). The cells were then incubated with primary antibodies diluted in 5% donkey serum in 0.1% Triton X100 (in PBS) at 4° C. overnight, followed by fluorescently conjugated secondary antibodies at room temperature for 30 min. The nuclei were stained with Hoechst. Images were collected with a Nikon A1 laser-scanning confocal microscope. Flow cytometry was performed using Transcription Factor Buffer Set which is designed for transcription factor staining following manufacturer's instruction. Briefly, single cells were prepared using TrypLE Express Enzyme and fixed in the fixation buffer provided by the kit at 2-8° C. for 45 min. After 3 washings with the permeable buffer, primary antibodies were added to cells for 45 min at 2-8° C. in a light-tight box. Cells were washed three times before fluorescently conjugated secondary antibodies. Second antibodies were incubated with cells for 45 minutes at 2-8° C. in a light-tight box and followed by washing three times. After the last wash, cells were suspended in washing buffer and analyzed by flow cytometry (BD LSR or BD LSRII). […]

[1] = test system: GRABNE1m sensor-expressing NE neurons; assay: Fluorescence imaging of GRABNE1m sensor cells; assay type: cell-based, human; conditions: norepinephrine reuptake inhibitor treatment
[2] = test system: human ESC-derived NE neurons; assay: Whole-cell patch clamp recording of spontaneous action potential firing; assay type: cell-based; conditions: 1 mM; reversed upon washing away
Method: gRNA was designed according to Benchling. Donor plasmid was generated by NEBuilder® HiFi DNA Assembly Master Mix (NEB, E2621S). Briefly, hPSCs were digested by TrypLE Express. Gene Pulser Xcell (Bio-Rad) was used for CRISPR/Cas9 delivery. Two-million cells were electroporated with 15 μg of sgRNA plasmid (pLenti-CRISPR) with 30 μg donor plasmid. Cells were plated at ˜150,000 cells/well of 6-well plate. Starting 24 hours after electroporation, 0.5 μg/ml puromycin were added to the culture medium. After 3 days of puromycin selection, hPSCs were switched to their normal culture medium and fed every other day until approximately 1-2 weeks after electroporation when distinct colonies were established. • Cell transplantation: Small aggregates of NE neural progenitors (day 10-day 12) were collected and suspended in artificial cerebral spinal fluid (aCSF) containing Rock inhibitor (0.5 μM), at a concentration of 100,000 cells/μl. 1 μl of cells were slowly injected into the left cortex (AP=+0.0 mm, ML=+1.8 mm, DV=−1.7 mm, from skull) of adult SCID mice (8-12 weeks) that were anesthetized with 1%-2% isoflurane mixed in oxygen. • Immunocytochemistry and flow cytometry: Immunocytochemistry was performed as described previously. […] After the last wash, cells were suspended in washing buffer and analyzed by flow cytometry (BD LSR or BD LSRII). […]

[3] = test system: human NE neuron progenitor cells; conditions: in neural differentiation medium
Source text: On day 5, change the medium without SB431542. […] Cells were feed daily.

SMILES	NE content in the supernatants (hESC-derived NE neurons)	GRABNE1m sensor intensity (extracellular norepinephrine) [1]	sAP firing rate [2]	yield of human TH+/DBH+ NE neurons [3]
CNCCC(Oc1ccccc1OC)c1ccccc1 (stereo not shown) [Nisoxetine]	increased the NE content	increase	–	–
CNCCCC12CCC(c3ccccc31)c1ccccc12 [Maprotiline]	increased the NE content	increase	–	–
CCOc1ccccc1OC(c1ccccc1)C1CNCCO1 (stereo not shown) [Reboxetine]	increased the NE content	increase	–	–
Clc1cccc(Cl)c1N=C1NCCN1 [Clonidine]	–	–	reduced the sAP firing rating significantly	–
CNCC[C@@H](Oc1ccccc1C)c1ccccc1 [Tomoxetine]	increased the NE content	increase	–	–
Nc1ncnc2c1ncn2[C@@H]1O[C@@H]2COP(=O)(O)O[C@H]2[C@H]1O [cAMP]	–	–	–	boost yield
